Where “and” joins values, the source holds several entries; their conditions need not be identical. Equal values may be shown once.
What was measured:
[1] = Aqueous solubility of JP-3-110 by HPLC (saturated water solution); format: physicochemical
Procedure: The column was Inertsil ODS-3, 250×4.6 mm, 5 μm. […] From top to bottom, 0.2, 2, 20, 200, 2000 μg/mL of JP-3-110 in acetonitrile (ACN).
(§1) Quinic acid amide analog TNP was synthesized as described before. See Zeng et al., 2009, Bioorganic & Medicinal Chemistry Letters, 19:5458-5460. JP-3-110 was synthesized by conjugating TNP with MPA and the structure of JP-3-110 was confirmed by 1H NMR. FIG. 1B. […] FIGS. 7A-7D. To improve solubility, the inventors conceived to introduce aqueous solubility enhancing groups such as ionizable groups —CO2H, —SO3H or amino groups, sugars at positions R1, R2 and/or R10 of Formulas II and III. Such introduction would require routine skills. The ester bond of JP-3-110 is susceptible to hydrolytic degradation, releasing TNP and MPA as two single drugs. More than 40% of JP-3-110 in the aqueous solution will be degraded when stored in 4° C. for 1 week (FIGS. 9A-9C).

[2] = Hydrolytic stability of JP-3-110 aqueous solution by HPLC; format: physicochemical; conditions: aqueous solution (0.4 mg/mL) stored in 4° C. for 1 week
Procedure: The peak at 2 minutes was denoted as MPA degraded from JP-3-110.
as §1

CCCCNC(=O)[C@]1(O)C[C@@H](O)[C@@H](O)[C@H](OC(=O)CC/C(C)=C/Cc2c(OC)c(C)c3c(c2OC(C)=O)C(=O)OC3)C1 [JP-3-110, (1R,2R,3R,5S)-5-(butylcarbamoyl)-2,3,5-trihydroxycyclohexyl (E)-6-(4-acetoxy-6-methoxy-7-methyl-3-oxo-1,3-dihydroisobenzofuran-5-yl)-4-methylhex-4-enoate]
solubility class according to USP solubility criteria [1]: practically insoluble | solubility ([1]; thermodynamic from solid, by HPLC): 480 µg/mL and 800 µM | JP-3-110 degraded in aqueous solution [2]: More than 40%
